Patent US20160264602A1, “MANUFACTURING METHOD OF SILATRANE WITH THIOL GROUP AND PRESERVATION METHOD THEREOF” (NATIONAL CHUNG CHENG UNIVERSITY, priority 2015, published 2016)

Tests used:
[1] = Tests of preserving method: MPS dissolution and self-assembly of gold nanoparticles on MPS-modified glass substrate; assay type: physicochemical
Procedure: Performing the tests of three preserving methods that preserve MPS under atmospheric condition, under nitrogen and in organic solvent.
Most silane molecules in general are placed in a brown bottle and stored at 4° C. To investigate the preservation conditions for MPS, the efficiency of the self-assembly reaction of gold nanoparticles on the MPS-modified substrate is used as an indirect indicator. There are two advantages by this approach. First, gold nanoparticles have a characteristic surface plasmon resonance band which can be easily observed in a visible light spectrum and its absorbance is related to the surface coverage of the nanoparticles modified on the surface of the substrate. Second, the peak width of the surface plasmon resonance band is related to the uniformity of the gold nanoparticles distributed on the surface of the substrate. In the present study, gold nanoparticles with 13 nm in diameter are chosen, and the characteristic absorption peak is about 530 nm. After synthesis, purified and dried MPS are separately stored under atmospheric condition at 4° C. and in a brown bottle at room temperature under nitrogen.
If the purified MPS is dissolved in organic solvent and then preserved under atmospheric condition and room temperature without avoiding light, the activity of the sample can be preserved for at least 1 year and 6 months (ex. 1 year and 7 months) (referring to FIG. 3(a)).
The activity of the sample is tested with the self-assembly reaction of gold nanoparticles on the surface of the substrate treated by the sample and then observed by visible light spectroscopy and scanning electron microscopy. The results are shown in FIG. 4(a) and FIG. 4(b) wherein, all experiments are performed by immersing the substrate in a methanol solution of MPS and then modifying gold nanoparticles on the treated substrate for 30 minutes.

[2] = Solubility of MPS in DMSO as time passes after manufacture; assay type: physicochemical
Procedure: No matter what kind of foregoing method, the product must be dissolved in organic solvent within 30 minutes. The solubility of MPS in aqueous phase or organic phase solvents will decrease as time passes.

dissolution of preserved sample ([1]; purified and dried MPS in brown bottle at room temperature under nitrogen, after 5 weeks): cannot be dissolved | dissolution of preserved sample ([1]; purified and dried MPS under atmospheric condition at 4° C., after 3 weeks): cannot be dissolved in any solvent | time for which MPS can be preserved ([1]; traditional nitrogen preservation method under dark condition): about two | solubility of MPS in dimethyl sulfoxide (DMSO) ([2]; after 1 week): about 40% | solubility of MPS in dimethyl sulfoxide (DMSO) ([2]; after 30 minutes): about 99% | solubility of MPS in dimethyl sulfoxide (DMSO) ([2]; after 1 day): about 90%
Structure (SMILES): SCCC[Si]12OCCN(CCO1)CCO2 [MPS, (3-mercaptopropyl)silatrane]
